Key:
[1] = Metabolic stability test in liver S9; assay type: in vitro ADME; details: pH 7.4, human liver S9 2 mg protein/mL, LC/MS; for remaining at 10 min: unchanged form after 10 minutes at 37°C, read-out: Remaining rate in human liver S9 (%/10min); for remaining at 1 h: unchanged form after 60 minutes at 37°C, read-out: Remaining rate in human liver S9 (%/60min)
Method: Human liver S9 (final concentration: 2 mg protein/mL), was suspended in 100 mM potassium phosphate buffer (pH 7.4, containing β-nicotinamide adenine dinucleotide phosphate: 1.3 mM, D-glucose-6- phosphate: 3.3 mM, magnesium chloride: 3.3 mM, glucose-6-phosphate dehydrogenase:0.4 U/mL). The suspension was mixed with a solution of a sample dissolved in DMSO. The solution was incubated at 37°C for 0, 10 and 60 minutes, and an acetonitrile containing formic acid (final concentration: 0.1%) was added thereto. The solutions were centrifuged, and the concentration of the sample (unchanged form) in the supernatant was determined by high performance liquid chromatography/mass spectrometry (LC/MS). Based on the data obtained, remaining rate (%) was calculated according to the following equation. Remaining rate(%) = amount of sample 0,10, or 60 minutes after [formula] incubation/amount of sample at zero time after incubation × 100 [formula]
(§1) With respect to the compounds obtained in Working Examples according to the present invention (Compounds 1-1 to 1-115, 2-1, 3-1, 3-2, and 4-1 to 4-4), the results of the remaining rate in human liver S9 and plasma are shown in Tables 28 to 32.

[2] = Metabolic stability test in plasma; assay type: in vitro ADME, human; details: LC/MS; for remaining at 10 min: unchanged form after 10 minutes at 37°C in human plasma, read-out: Remaining rate in human plasma (%/10min); for remaining at 1 h: unchanged form after 60 minutes at 37°C in human plasma, read-out: Remaining rate in human plasma (%/60min)
Method: A sample dissolved in DMSO was added to plasma of human or animal species (mouse and hamster). The solutions were incubated at 37°C for 0, 10 and 60 minutes, and acetonitrile containing formic acid (final concentration: 0.1%) was added thereto. The solutions were centrifuged, and the concentration of the sample (unchanged form) in the supernatant was determined by high performance liquid chromatography/mass spectrometry (LC/MS). Based on the data obtained, the remaining rate (%) was calculated according to the following equation. Remaining rate(%) = amount of sample 0,10, or 60 minutes after incubation/amount of sample at zero time after incubation × 100 [formula]
as §1

[3] = Stability test in buffer (pH 7.4); assay type: physicochemical; details: phosphate buffer/acetonitrile 7:3, 100 mM potassium phosphate buffer (pH 7.4) and acetonitrile 7:3 (v/v), LC/MS; for remaining at 10 min: 10 minutes at 37°C, read-out: Buf. remaining rate (%/10min); for remaining at 1 h: 60 minutes at 37°C, read-out: Buf. remaining rate (%/60min)
Method: In the tables, Buf. remaining rate was determined by stability test in buffer (pH 7.4) as described below. A sample dissolved in DMSO was mixed with a mixed solution of 100 mM potassium phosphate buffer and acetonitrile in the ratio of 7:3 (v/v). The mixture was incubated at 37°C for 0, 10, and 60 minutes, and acetonitrile containing formic acid (final concentration: 0.1%) was added thereto. The solution was centrifuged, and the concentration of the sample (unchanged form) in the supernatant was determined by high performance liquid chromatography/mass spectrometry (LC/MS). Based on the data obtained, Buf. remaining rate (%) was calculated according to the following equation. Buf.remaining rate(%) = amount of sample 0,10, or 60 minutes after incubation/amount of sample at zero time after incubation × 100 [formula]

remaining at 10 min [1] [%]	remaining at 1 h [1] [%]	remaining at 10 min [2] [%]	remaining at 1 h [2] [%]	remaining at 10 min [3] [%]	remaining at 1 h [3] [%]	Compound
0	0	0	0	99	99	COC(=O)c1ccc(OC(=O)CCCc2ccc(NC(=O)c3ccccc3-c3ccc(C(F)(F)F)cc3)c(C(=O)N(C)C)c2)c(Cl)c1 [Compound 1-11, 3-chloro-4-(4-{3-dimethylcarbamoyl-4-[(4'-trifluoromethylbiphenyl-2-carbonyl)amino]phenyl}butyryloxy)benzoic acid methyl ester]
0	0	10	0	100	103	COC(=O)c1ccc(OC(=O)CCCc2ccc(NC(=O)c3ccccc3-c3ccc(C(F)(F)F)cc3)c(C(=O)N(C)C)c2)c(OC)c1 [Compound 1-12, 4-(4-{3-dimethylcarbamoyl-4-[(4'-trifluoromethylbiphenyl-2-carbonyl)amino]phenyl}butyryloxy)-3-methoxybenzoic acid methyl ester]
0	0	24	0	95	97	COC(=O)c1ccc(OC(=O)CCCc2ccc(NC(=O)c3ccc(C)nc3-c3ccc(C(F)(F)F)cc3)c(C(=O)N(C)C)c2)cc1 [Compound 1-13, 4-[4-(3-dimethylcarbamoyl-4-{[6-methyl-2-(4-trufluoromethylphenyl)pyridine-3-carbonyl]amino}phenyl)butyryloxy)benzoic acid methyl ester]
2	0	43	0	101	104	COC(=O)c1ccc(OC(=O)CCCc2ccc(NC(=O)c3ccccc3-c3ccc(C(F)(F)F)cc3)c(C(=O)N(C)C)c2)cc1C [Compound 1-14, 4-(4-{3-dimethylcarbamoyl-4-[(4'-trifluoromethylbiphenyl-2-carbonyl)amino]phenyl}butyryloxy)-2-methyl benzoic acid methyl ester]
4	0	42	0	98	100	COC(=O)c1ccc(OC(=O)CCCc2ccc(NC(=O)c3ccccc3-c3ccc(C(F)(F)F)cc3)c(C(=O)N3CCCC3)c2)cc1 [Compound 1-15, 4-(4-{3-(pyrrolidine-1-carbonyl)-4-[(4'-trifluoromethylbiphenyl-2-carbonyl)amino]phenyl}butyryloxy)benzoic acid methyl ester]
2	0	3	0	98	103	CCOC(=O)c1ccc(OC(=O)CCCc2ccc(NC(=O)c3ccccc3-c3ccc(C(F)(F)F)cc3)c(C(=O)N3CCCC3)c2)c(F)c1 [Compound 1-16, 3-fluoro-4-(4-{3-(pyrrolidine-1-carbonyl)-4-[(4'-trifluoromethylbiphenyl-2-carbonyl)amino]phenyl)butyryloxy)benzoic acid ethyl ester]

Further lines, the compound ahead of its results:

Compound	remaining at 10 min [1] [%]	remaining at 1 h [1] [%]	remaining at 10 min [2] [%]	remaining at 1 h [2] [%]	remaining at 10 min [3] [%]	remaining at 1 h [3] [%]
CN(C)C(=O)c1cc(CCC(=O)Oc2ccccc2)ccc1NC(=O)c1ccccc1-c1ccc(C(F)(F)F)cc1 [Compound 1-1, 3-{3-dimethylcarbamoyl-4-[(4'-trifluoromethylbiphenyl-2-carbonyl)amino]phenyl}propionic acid phenyl ester]	0	0	80	40	101	104
Cc1noc(-c2ccc(OC(=O)CCCc3ccc(NC(=O)c4ccccc4-c4ccc(C(F)(F)F)cc4)c(C(=O)N(C)C)c3)cc2)n1 [Compound 1-2, 4-{3-dimethylcarbamoyl-4-[(4'-trifluoromethylbiphenyl-2-carbonyl)amino]phenyl}butyric acid 4-(3-methyl-[1,2,4]oxadiazol-5-yl)phenyl ester]	0	0	20	0	98	97
CN(C)C(=O)c1cc(CC(=O)Oc2ccccc2)ccc1NC(=O)c1ccccc1-c1ccc(C(F)(F)F)cc1 [Compound 1-3, {3-dimethylcarbamoyl-4-[(4'-trifluoromethylbiphenyl-2-carbonyl)amino]phenyl}acetic acid phenyl ester]	0	0	58	5	101	98
CN(C)C(=O)c1cc(CC(=O)Oc2ccc(F)cc2)ccc1NC(=O)c1ccccc1-c1ccc(C(F)(F)F)cc1 [Compound 1-4, {3-dimethylcarbamoyl-4-[(4'-trifluoromethylbiphenyl-2-carbonyl)amino]phenyl}acetic acid 4-fluorophenyl ester]	0	0	57	5	99	95
COC(=O)c1ccc(OC(=O)CCCc2ccc(NC(=O)c3ccccc3-c3ccc(C(F)(F)F)cc3)c(C(=O)N(C)C)c2)cc1 [Compound 1-5, 4-(4-(3-dimethylcarbamoyl-4-[(4'-trifluoromethylbiphenyl-2-carbonyl)amino]phenyl}butyryloxy)benzoic acid methyl ester]	0	0	11	0	100	101
CCOC(=O)c1ccc(OC(=O)CCCc2ccc(NC(=O)c3ccccc3-c3ccc(C(F)(F)F)cc3)c(C(=O)N(C)C)c2)cc1 [Compound 1-6, 4-(4-{3-dimethylcarbamoyl-4-[(4'-trifluoromethylbiphenyl-2-carbonyl)amino]phenyl}butyryloxy)benzoic acid ethyl ester]	0	0	53	0	102	102
CC(C)OC(=O)c1ccc(OC(=O)CCCc2ccc(NC(=O)c3ccccc3-c3ccc(C(F)(F)F)cc3)c(C(=O)N(C)C)c2)cc1 [Compound 1-7, 4-(4-{3-dimethylcarbamoyl-4-[(4'-trifluoromethylbiphenyl-2-carbonyl)amino]phenyl}butyryloxy)benzoic acid isopropyl ester]	0	0	60	0	98	98
CCCOC(=O)c1ccc(OC(=O)CCCc2ccc(NC(=O)c3ccccc3-c3ccc(C(F)(F)F)cc3)c(C(=O)N(C)C)c2)cc1 [Compound 1-8, 4-(4-{3-dimethylcarbamoyl-4-[(4'-trifluoromethylbiphenyl-2-carbonyl)amino]phenyl}butyryloxy) benzoic acid propyl ester]	0	0	71	12	99	98
COC(=O)c1ccc(OC(=O)CCCc2ccc(NC(=O)c3ccccc3-c3ccc(C(F)(F)F)cc3)c(C(=O)N(C)C)c2)c(F)c1 [Compound 1-10, 4-(4-{3-dimethylcarbamoyl-4-[(4'-trifluoromethylbiphenyl-2-carbonyl)amino]phenyl}butyryloxy)-3-fluoro benzoic acid methyl ester]	0	0	0	0	101	98
